Reference: the NIST ThermoML archive (doi:10.1021/je200373q)
± gives the expanded uncertainty stated by the source.

Conditions: 101.33 kPa, Liquid, Vibrating tube method

| Structure (SMILES) | mass density (273.15 K) | mass density (278.15 K) | mass density (283.15 K) | mass density (288.15 K) | mass density (293.15 K) | mass density (298.15 K) | mass density (303.15 K) | mass density (308.15 K) | mass density (313.15 K) | mass density (318.15 K) | mass density (323.15 K) | mass density (328.15 K) | mass density (333.15 K) | mass density (338.15 K) | mass density (343.15 K) | mass density (348.15 K) | mass density (353.15 K) | mass density (358.15 K) | mass density (363.15 K) |
| --- | --- | --- | --- | --- | --- | --- | --- | --- | --- | --- | --- | --- | --- | --- | --- | --- | --- | --- | --- |
| CCCCCCCCC [nonane] | 732.83 ± 0.25 kg/m3 | 729.01 ± 0.25 kg/m3 | 725.16 ± 0.25 kg/m3 | 721.32 ± 0.25 kg/m3 | 717.45 ± 0.25 kg/m3 | 713.58 ± 0.25 kg/m3 | 709.69 ± 0.25 kg/m3 | 705.78 ± 0.25 kg/m3 | 701.86 ± 0.25 kg/m3 | 697.91 ± 0.25 kg/m3 | 693.95 ± 0.25 kg/m3 | 689.97 ± 0.25 kg/m3 | 685.97 ± 0.25 kg/m3 | 681.94 ± 0.25 kg/m3 | 677.88 ± 0.25 kg/m3 | 673.91 ± 0.25 kg/m3 | 669.71 ± 0.26 kg/m3 | 665.58 ± 0.26 kg/m3 | 661.14 ± 0.26 kg/m3 |
| CCCCCCCC [octane] | 718.25 ± 0.25 kg/m3 | 714.31 ± 0.25 kg/m3 | 710.34 ± 0.25 kg/m3 | 706.35 ± 0.25 kg/m3 | 702.35 ± 0.25 kg/m3 | 698.34 ± 0.25 kg/m3 | 694.3 ± 0.25 kg/m3 | 690.24 ± 0.25 kg/m3 | 686.17 ± 0.25 kg/m3 | 682.06 ± 0.25 kg/m3 | 677.94 ± 0.25 kg/m3 | 673.79 ± 0.25 kg/m3 | 669.61 ± 0.26 kg/m3 | 665.4 ± 0.26 kg/m3 | 661.16 ± 0.26 kg/m3 | 656.88 ± 0.26 kg/m3 | 652.57 ± 0.26 kg/m3 | 648.23 ± 0.26 kg/m3 | 643.83 ± 0.26 kg/m3 |
